Like-named read-outs stand apart in the source and are kept apart here.

One series relates to HIV-1 UG270. The series is classed as cell-based. The procedure: (§1) PBMC Infectivity Assay. PBMC were isolated from healthy blood donors by Ficoll-Hypaque centrifugation and then stimulated for 2-3 days with phytohemagglutinin (5 μg/ml) and interleukin-2 (100 U/ml). The inhibition assay was performed essentially as described previously (Trkola, A., T. Ketas, V. N. KewalRamani, F. Endorf, J. M. Binley, H. Katinger, J. Robinson, D. R. Littman, and J. P. Moore. 1998. Neutralization sensitivity of human immunodeficiency virus type 1 primary isolates to antibodies and CD4-based reagents is independent of co-receptor usage. J. Virol. 72:1876-1885; Trkola, A., W. A. Paxton, S. P. Monard, J. A. Hoxie, M. A. Siani, D. A. Thompson, L. Wu, C. R. Mackay, R. Horuk, and J. P. Moore. 1998. Genetic subtype-independent inhibition of human immunodeficiency virus type 1 replication by CC and CXC chemokines. J. Virol. 72:396-404).
(§2) Briefly, the virus inoculum was adjusted to 400-1,000 TCID50/ml in assay medium (RPMI 1640, 10% FCS, 100 U of interleukin-2 per ml, glutamine, and peptides), and 50 μl aliquots were incubated with serial dilutions of the peptide inhibitors (50 μl) for 1 h at 37° C. […] RBMC (4×10^5 in 100 μl of medium) were then added. The final concentration of virus in the cultures was 20-50 TCID50/well, corresponding to 100-250 TCID50/ml. Peptides, virus, and cells were then incubated for 5-7 days at 37° C., and the extent of viral replication was determined by p24 antigen ELISA of the culture supernatants. The viral inocula in 50% tissue culture infectious doses (TCID50) were 400-1000/ml.

The next series concerns HIV-1 NL4-3. In kind it is cell-based. The procedure: as §1, §2
The next series has as its system HIV-1 DJ258. The series is classed as cell-based. To be noted: human PBMC, 5-7 days, p24 ELISA; second line of the isolate = second separate assay; read-out: Antiviral activity IC50, HIV-1 DJ258. The procedure:
as §1, §2
In general terms: ELISA stands for enzyme-linked immunosorbent assay.

A further series relates to HIV-1 CM.235. The series is classed as cell-based. To be noted: human PBMC, 5-7 days, p24 ELISA; second line of the isolate = second separate assay; read-out: Antiviral activity IC50, HIV-1 CM.235. The procedure: as §1, §2
A further series relates to HIV-1 BZ162. The series is classed as cell-based. Particulars: human PBMC, 5-7 days, p24 ELISA; second line of the isolate = second separate assay; read-out: Antiviral activity IC50, HIV-1 BZ162. As to the method: as §1, §2
A further series concerns HIV-1 Case C 7/86. In kind it is cell-based. To be noted: human PBMC, 5-7 days, p24 ELISA; second line of the isolate = second separate assay; read-out: Antiviral activity IC50, HIV-1 Case C 7/86. The procedure: as §1, §2
Another series has as its system HIV-1 JFRL. The series is classed as cell-based. The procedure: as §1, §2
A further series has as its system HIV-1 94ZW103. The series is classed as cell-based. As to the method: as §1, §2
Series [1] is described as follows: Circular dichroism spectroscopy. The series is classed as physicochemical. To be noted: 10 μM peptide, 50 mM Tris-HCl (pH 8.0), 10 mM NaCl, 4° C. As to the method:
CD measurements of the peptides were carried out on an Aviv 62 DS circular dichroism spectrometer (Aviv Biomedical, Lakewood, N.J.). Peptides were dissolved in 50 mM Tris-HCl (pH 8.0) and 10 mM NaCl with a total peptide concentration of 10 μM. The wavelength dependence of molar ellipticity, [θ], was monitored at 4° C. as the average of five scans, using a five-second integration time at 1.0 nm wavelength increments. Spectra were baseline-corrected against the cuvette with buffer alone. […] Thermal stability was determined by monitoring the change in CD signal at 222 nm as a function of temperature, and thermal melts were performed in two-degree intervals with a two-minute equilibration at the desired temperature, and an integration time of 30 s. Reversibility was checked by repeated scans.
(In general: Circular dichroism is the unequal absorption of left and right circularly polarised light.)

The mark [2] stands for this setting: human PBMC, 5-7 days, p24 ELISA, second line of the isolate = second separate assay, read-out: Antiviral activity IC50, HIV-1 UG270.
Where [3] appears, read: human PBMC, 5-7 days, p24 ELISA, second line of the isolate = second separate assay, read-out: Antiviral activity IC50, HIV-1 NL4-3.
The mark [4] stands for this setting: human PBMC, 5-7 days, p24 ELISA, second line of the isolate = second separate assay, read-out: Antiviral activity IC50, HIV-1 JFRL.
Setting [5] is: human PBMC, 5-7 days, p24 ELISA, second line of the isolate = second separate assay, read-out: Antiviral activity IC50, HIV-1 94ZW103.

As to `CC[C@H](C)[C@H](NC(=O)[C@H](CCCCN)NC(=O)[C@@H](NC(=O)[C@H](CC(N)=O)NC(=O)[C@H](Cc1ccccc1)NC(=O)[C@H](Cc1c[nH]c2ccccc12)NC(=O)[C@H](CC(N)=O)NC(=O)[C@H](Cc1c[nH]c2ccccc12)NC(=O)[C@H](CC(C)C)NC(=O)[C@H](CO)NC(=O)[C@H](C)NC(=O)[C@H](Cc1c[nH]c2ccccc12)NC(=O)[C@H](CCCCN)NC(=O)[C@H](CC(=O)O)NC(=O)[C@H](CC(C)C)NC(=O)[C@H](CCC(=O)O)NC(=O)[C@H](Cc1ccccc1)NC(=O)[C@H](CC(C)C)NC(=O)[C@H](CCC(=O)O)NC(=O)[C@H](CCC(N)=O)NC(=O)[C@H](CCC(=O)O)NC(=O)[C@H](C)NC(=O)[C@H](CCCCN)NC(=O)[C@H](CCC(=O)O)NC(=O)[C@H](CCC(N)=O)NC(=O)[C@H](CC(C)C)NC(=O)[C@H](CC(N)=O)NC(=O)[C@H](CCC(N)=O)NC(=O)[C@H](CO)NC(=O)[C@H](CCC(=O)O)NC(=O)[C@H](CCC(=O)O)NC(=O)[C@H](Cc1ccccc1)NC(=O)[C@H](CC(C)C)NC(=O)[C@H](CO)NC(=O)[C@H](Cc1c[nH]cn1)NC(=O)[C@@H](NC(=O)[C@H](CC(C)C)NC(=O)[C@H](CO)NC(=O)[C@@H](NC(=O)[C@H](Cc1ccc(O)cc1)NC(=O)[C@H](CC(N)=O)NC(=O)[C@H](CC(N)=O)NC(=O)[C@@H](NC(=O)[C@H](CCC(=O)O)NC(=O)[C@H](CCCNC(=N)N)NC(=O)[C@H](CC(=O)O)NC(=O)[C@H](Cc1c[nH]c2ccccc12)NC(=O)[C@H](CCC(=O)O)NC(=O)[C@H](CCSC)NC(=O)[C@H](Cc1c[nH]c2ccccc12)NC(=O)[C@@H](NC(=O)[C@@H](NC(=O)[C@H](Cc1c[nH]cn1)NC(=O)[C@@H](N)CC(N)=O)[C@@H](C)O)[C@@H](C)O)[C@@H](C)CC)[C@@H](C)O)[C@@H](C)CC)[C@@H](C)CC)C(=O)N[C@@H](CCCCN)C(=O)O` [Peptide C52L, NHTTWMEWDREINNYTSLIHSLFEESQNLQEKAEQELFELDKWASLWNWFNI-KIK], the IC50 in the series on HIV-1 UG270 (setting [2]) came out at 61 nM; in the series on HIV-1 NL4-3 (setting [3]) it was 20 nM; in the series with HIV-1 DJ258, 11 nM; in the series with HIV-1 CM.235, 12 nM; in the series on HIV-1 BZ162 it was 3 nM; with HIV-1 Case C 7/86, 17 nM. Besides, the IC50 was found to be 6 nM with HIV-1 JFRL (setting [4]) and 3 nM with HIV-1 94ZW103 (setting [5]). In series [1], the “Structure in solution by circular dichroism” value is “forms an α-helical structure in solution”.

For Enfuvirtide, the IC50 with HIV-1 UG270 (UG270) was 139 nM; in the series with HIV-1 NL4-3 (NL4-3), 44 nM; in the series with HIV-1 JFRL (JFRL) it was 10 nM; in the series on HIV-1 94ZW103 (94ZW103) it was 18 nM.

`CC[C@H](C)[C@H](NC(=O)[C@H](CCCCN)NC(=O)[C@@H](NC(=O)[C@H](CC(N)=O)NC(=O)[C@H](Cc1ccccc1)NC(=O)[C@H](Cc1c[nH]c2ccccc12)NC(=O)[C@H](CC(N)=O)NC(=O)[C@H](Cc1c[nH]c2ccccc12)NC(=O)[C@H](CC(C)C)NC(=O)[C@H](CO)NC(=O)[C@H](C)NC(=O)[C@H](Cc1c[nH]c2ccccc12)NC(=O)[C@H](CCCCN)NC(=O)[C@H](CC(=O)O)NC(=O)[C@H](CC(C)C)NC(=O)[C@H](CCC(=O)O)NC(=O)[C@H](CC(C)C)NC(=O)[C@H](CC(C)C)NC(=O)[C@H](CCC(=O)O)NC(=O)[C@H](CCC(N)=O)NC(=O)[C@H](CCC(=O)O)NC(=O)[C@H](CC(N)=O)NC(=O)[C@H](CCCCN)NC(=O)[C@H](CCC(=O)O)NC(=O)[C@H](CCC(N)=O)NC(=O)[C@H](CC(C)C)NC(=O)[C@H](CC(N)=O)NC(=O)[C@H](CCC(N)=O)NC(=O)[C@H](CO)NC(=O)[C@H](CCC(=O)O)NC(=O)[C@H](CCC(=O)O)NC(=O)[C@@H](NC(=O)[C@H](CC(C)C)NC(=O)[C@H](CO)NC(=O)[C@H](Cc1c[nH]cn1)NC(=O)[C@@H](NC(=O)[C@H](CC(C)C)NC(=O)[C@H](CO)NC(=O)[C@@H](NC(=O)[C@H](Cc1ccc(O)cc1)NC(=O)[C@H](CC(N)=O)NC(=O)[C@H](CC(N)=O)NC(=O)[C@@H](NC(=O)[C@H](CCC(=O)O)NC(=O)[C@H](CCCNC(=N)N)NC(=O)[C@H](CC(=O)O)NC(=O)[C@H](Cc1c[nH]c2ccccc12)NC(=O)[C@H](CCC(=O)O)NC(=O)[C@H](CCSC)NC(=O)[C@H](Cc1c[nH]c2ccccc12)NC(=O)[C@@H](NC(=O)[C@@H](NC(=O)[C@H](Cc1c[nH]cn1)NC(=O)[C@@H](N)CC(N)=O)[C@@H](C)O)[C@@H](C)O)[C@@H](C)CC)[C@@H](C)O)[C@@H](C)CC)[C@@H](C)CC)[C@@H](C)CC)C(=O)N[C@@H](CCCCN)C(=O)O` [Peptide C52F, NHTTWMEWDREINNYTSLIHSLIEESQNLQEKNEQELLELDKWASLWNWFNI-KIK]: the IC50 with HIV-1 UG270 (setting [2]) was determined as 68 nM; with HIV-1 NL4-3 (setting [3]), 23 nM; in the series with HIV-1 DJ258, 9 nM; with HIV-1 CM.235, 11 nM; in the series with HIV-1 BZ162, 2 nM; in the series on HIV-1 Case C 7/86, 49 nM. The IC50 in the series with HIV-1 JFRL (setting [4]) was 5 nM; with HIV-1 94ZW103 (setting [5]), 4 nM. The “Structure in solution by circular dichroism” value in [1] is “forms an α-helical structure in solution”.

Source of the values: patent publication US20070134221A1, “Stabilizing peptides” (priority 2003, published 2007).
